Assay results: the NIST ThermoML archive (doi:10.1016/j.fluid.2014.11.010)
Numbers after ± are expanded uncertainties.

Conditions: 313.15 K; Liquid; Closed cell (Static) method

vapor or sublimation pressure [kPa]	SMILES
2.506 ± 0.015	CCCCO [butan-1-ol]
6.05 ± 0.02	CCC(C)O (centres undefined) [butan-2-ol]
45 ± 0.092	C=CCCCC [hex-1-ene]

SMILES	vapor or sublimation pressure [kPa]
Cc1ccccc1 [toluene]	7.876 ± 0.022
